“Also recorded” adds a separate entry of the source.
Tests used:
[1] = target: T1, HMG-CoA reductase (Homo sapiens, UniProt P04035); assay: HMG-CoA reductase activity assay; type: biochemical; conditions: compound 13 at 50 nM and 100 nM
T1 construct: purchased Sigma-Aldrich CS1090
T1 sequence (P04035 426-888 limits assumed): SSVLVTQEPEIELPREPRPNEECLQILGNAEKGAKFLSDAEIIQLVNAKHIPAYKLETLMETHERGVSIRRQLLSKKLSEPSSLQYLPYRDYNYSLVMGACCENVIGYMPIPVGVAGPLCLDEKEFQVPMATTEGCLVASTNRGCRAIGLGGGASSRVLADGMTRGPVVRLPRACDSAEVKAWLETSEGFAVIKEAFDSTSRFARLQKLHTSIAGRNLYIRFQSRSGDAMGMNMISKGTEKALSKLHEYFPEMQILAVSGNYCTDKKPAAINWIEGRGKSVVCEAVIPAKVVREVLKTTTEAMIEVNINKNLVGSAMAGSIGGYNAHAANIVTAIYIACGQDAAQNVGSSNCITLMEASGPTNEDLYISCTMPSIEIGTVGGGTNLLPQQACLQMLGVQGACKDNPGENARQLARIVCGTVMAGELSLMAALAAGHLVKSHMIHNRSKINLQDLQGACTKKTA
Description: Enzyme activity was quantified using a commercially available Assay Kit (CS1090 HMG-CoA Reductase Kit, Sigma-Aldrich, St. Louis, Mo.)

[2] = system: MGP−/− mice; assay: Aortic calcification in MGP−/− mice (Alizarin red, OsteoSense); type: in vivo; conditions: for aortic tissue calcium (Alizarin red staining): 28 days old
Method: MGP−/− mice were treated with either vehicle or the small molecule BMP type I receptor inhibitor compound 13 (2.5 mg/kg once daily IP) from day 1 to 28. Compound 13 is used as a BMP inhibitor positive control compound in these experiments. Whole aortas were harvested for phospho-Smad 1/5/8 (P-Smad) immunohistochemistry, a marker of BMP signaling, and for Alizarin Red staining of calcium. Osteogenic activity in aortas was visualized ex vivo by the uptake of a fluorescent bisphosphonate imaging probe. MGP−/− mice were also treated with vehicle or compound 13 to ascertain if inhibition of BMP signaling could impact survival, using Kaplan-Meier and Cox regression analysis.
MGP−/− mice were treated with intraperitoneal (IP) injections of either vehicle or compound 13 at 2.5 mg/kg/day from day 1-28. At day 28, aortas were harvested for both histology and RNA isolation. […] To further quantify aortic calcium, a fluorescent bisphosphonate agent that specifically binds to hydroxyapatite (OsteoSense 680 nm, Perkin Elmer) was used. (Aikawa E, et al. Multimodality molecular imaging identifies proteolytic and osteogenic activities in early aortic valve disease. Circulation. 2007; 115(3):377-386 and Zaheer A, et al. In vivo near-infrared fluorescence imaging of osteoblastic activity. Nature biotechnology. 2001; 19(12):1148-1154.) MGP−/− mice at 27 days of age treated with vehicle or compound 13 received OsteoSense via tail vein, and 24 h later, aortas were harvested for imaging. […] The reduction in BMP signaling and aortic calcification observed with compound 13 treatment of MGP−/− mice was associated with a >5-fold reduction in aortic Wnt3a gene expression, implicating the Wnt signaling pathway as an important mediator of BMP-dependent osteogenic differentiation (P<0.01).
MGP−/− mice were treated with vehicle (n=7), compound 13 (2.5 mg/kg/day IP, n=6), or ALK3-Fc (2 mg/kg QOD IP, n=4) beginning on day 1 after birth. At day 27, mice were injected via the tail vein with a fluorescent bisphosphonate probe (Osteosense 680 nm, 2 nmol per mouse) that targets tissue calcification. Twenty-four hours later, aortae were harvested and imaged.

[3] = system: LDLR−/− mice; assay: Hepatic steatosis in LDLR−/− mice on high fat diet; type: in vivo; conditions: high fat diet 20 weeks, 2.5 mg/kg ip daily
Method: (§1) Aortas were either immediately embedded and cryopreserved using optimal cutting-temperature medium (Sakura Tissue-Tek, Zoeterwoude, The Netherlands) or fixed in paraformaldehyde and embedded in parafin. The presence of calcification was determined by staining tissue sections with Alizarin red or Von Kossa. Lipid accumulation in tissue sections was visualized by staining with Oil Red O. Liver sections were prepared from paraformaldehyde-fixed tissue and stained with hematoxylin and eosin.

[4] = system: LDLR−/− mice; assay: Atheroma burden / lesion formation in LDLR−/− mice (Oil Red O, histology); type: in vivo; conditions: for lipid accumulation / atheroma burden (Oil Red O): high fat diet 20 weeks, 2.5 mg/kg ip daily, vs vehicle, 2.5 mg/kg
Method: as §1
To confirm that BMP signaling has a direct impact on atherogenesis, the aortae explanted from the BMP inhibitor positive control compound-treated and vehicle-treated LDLr−/− mice after 20 weeks were subjected to Oil Red 0 staining to mark lipid-rich plaques.
LDLr−/− mice were started on a hypercholesterolemic diet at 8 weeks, and treated with either vehicle (saline) or a BMP inhibitor positive control compound (compound 13, 2.5 mg/kg/d intraperitoneally) for an additional 8 weeks. Aortae were harvested and fixed, and then stained with antibodies sensitive for the BMP effector molecule, phosphorylated-SMAD1/5/8, and counterstained with DAPI nuclear stain. Within 6-8 weeks of being subjected to a high fat diet, LDR−/− mice developed fatty lesions in the intima of the aortic root, based on traditional histochemical staining techniques (data not shown). […] Thus, the cellular components of lipid rich plaques, predominantly macrophage-derived foam cells, had evidence of intense activation of the BMP signaling pathway. In contrast, the lipid plaques found in the BMP inhibitor positive control compound-treated mice, which were diminished in size and extent as compared to those in vehicle-treated mice, had also diminished intensity of staining for the phosphorylated form of SMAD1/5/8 (data not shown). Thus, hypercholesterolemic mice had evidence of intense BMP signaling pathway activation in the cellular components of atheromatous lesions, and treatment of hypercholesterolemic mice with the BMP inhibitor positive control compound diminished the activation of the BMP signaling pathway in these lesions.
(§2) LDLR−/− deficient mice were intiated on an atherogenic diet (Paigen) at 8 weeks of age, and administered either vehicle, a BMP inhibitor positive control compound (compound 13, 2.5 mg/kg IP daily) or ALK3-Fc (2 mg/kg IP every other day). Each treatment group consisted of a total of 10 mice. After 4 weeks of atherogenic diet and drug or vehicle treatment, the animals were sacrificed. The frontal plane sections of the aortic arch were dissected out and stained for macrophage marker (MAC2) and counterstained with DAPI.
as §2, with “initiated” for “intiated”, “([…]” for “(2”, “day).” for “day). Each treatment group consisted of a total of 10 mice.”, “6” for “4”, “and” for “and drug or vehicle”, “phosphorylated SMAD1/5/8” for “macrophage marker (MAC2)”

c1ccc2c(-c3cnn4cc(-c5ccc(N6CCNCC6)cc5)cnc34)ccnc2c1 [Compound 13, 4-[6-(4-piperazin-1-ylphenyl)pyrazolo[1,5-a]pyrimidin-3-yl]quinoline] was tested, and the “HMG-CoA reductase enzyme activity in vitro” value [1] was “did not inhibit; also recorded: lack of impact”, the “aortic tissue calcium (Alizarin red staining)” value ([2]; treated from day 1) was “reduction in tissue calcium levels” and the “aortic tissue calcium (Alizarin red staining)” value ([2]; treated from day 1, listed as compound 13) was “less calcification; also recorded: reduced vessel calcification”. The “arterial calcification by OsteoSense fluorescence” value ([2]; day 1-28, compound 13 2.5 mg/kg/day IP, ALK3-Fc 2 mg/kg QOD IP) was “reduction of arterial calcification; also recorded: marked reduction in arterial calcification; also recorded: reduces vascular calcification”, the “reduction in aortic osteogenic activity compared to vehicle-treated controls” value ([2]; fluorescent bisphosphonate probe, n=6 in each group) was 81% and the “aortic osteogenic activity, normalized average intensity ±SEM” value ([2]; vehicle 1.0±0.10) was 0.19±0.05. For the same molecule, the hepatic steatosis ([3]; 2.5 mg/kg) was “protected from hepatic steatosis”, the hepatic steatosis ([3]; listed as compound 13, 2.5 mg/kg) was “could be prevented” and the “lesion formation in aortic arch” value ([4]; LDLR−/− mice, atherogenic diet and treatment 4 weeks, compound 13 2.5 mg/kg IP daily, ALK3-Fc 2 mg/kg IP every other day) was “decreased lesion formation overall”. For the same molecule, the “lesion formation / atherogenesis” value ([4]; LDLR−/− mice, atherogenic diet and treatment 6 weeks) was “decreased lesion formation overall”, the “lipid accumulation / atheroma burden (Oil Red O)” value ([4]; LDLR−/− mice) was “Atheroma burden was reduced; also recorded: marked reduction” and the “lipid accumulation / atheroma burden (Oil Red O)” value ([4]; LDLR−/− mice, listed as BMP inhibitor positive control compound) was “consistently more severe in vehicle-treated”. For the same molecule, the intimal atheroma formation ([4]; LDLr−/− mice, hypercholesterolemic diet and treatment 8 weeks, 2.5 mg/kg/d ip) was “reduced intimal atheroma formation”.

Source: patent US20140038953A1, “COMPOSITIONS AND METHODS FOR CARDIOVASCULAR DISEASE” (THE GENERAL HOSPITAL CORPORATION, priority 2011, published 2014)
